Assay: thermogravimetric analysis (TGA), thermal stability

- stability at the processing temperature (180° C.): stable
- temperature above which decomposition begins (non-isothermal mode): above 190 °C
Structure (SMILES): Clc1ccccc1C(c1ccccc1)(c1ccccc1)n1ccnc1 [Clotrimazole]

Source: patent US10751293B2, “Polymer fiber scaffolds and uses thereof” (CASE WESTERN RESERVE UNIVERSITY, priority 2015, dated 2020)
